Test results published in patent EP0217101A1, “Substituted diphenyl ethers, process for their preparation and their use as herbicides” (HOECHST AKTIENGESELLSCHAFT, priority 1985, dated 1987).

Tests used:
Assay type in all cases: in vivo
[1] = tested on: Stellaria media; assay: Weed control pre-emergence (greenhouse pot test); details: pre-emergence, 2,5 kg a.i./ha, visual rating after 3-4 weeks
Excerpt: (§1) Die Schädigung der Unkrautpflanzen bzw. die Kulturpflanzenverträglichkeit wurde gemäß einem Schlüssel bonitiert, in dem die Wirksamkeit durch Wertzahlen von 0 - 5 ausgedrückt ist. Dabei bedeutet:
(§2) Samen bzw. Rhizomstücke von mono- und dikotylen Unkrautpflanzen wurden in Plasstiktöpfen (0 = 9 cm) in sandiger Lehmerde ausgelegt und mit Erde abgedeckt. Die in Form von benetzbaren Pulvern oder Emulsionskonzentraten formulierten erfindungsgemäßen Verbindungen wurden dann als wäßrige Suspensionen bzw. Emulsionen mit einer Wasseraufwandmenge von umgerechnet 600-800 1/ha in unterschiedlichen Dosierungen auf die Oberfläche der Abdeckerde appliziert. Nach der Behandlung wurden die Töpfe im Gewächshaus aufgestellt und unter guten Wachstumsbedingungen für die Unkrautpflanzen gehalten (Temperatur 23 plus/minus 1 Grad Celsius, relative Luftfeuchte 60-80 %).
(§3) Die optische Bonitur der Pflanzen- bzw. Auflaufschäden erfolgte nach dem Auflaufen der Versuchspflanzen nach einer Versuchszeit von 3-4 Wochen im Vergleich zu unbehandelten Kontrollen.

[2] = tested on: Echinochloa crus-galli; assay: Weed control pre-emergence (greenhouse pot test); details: pre-emergence, 2,5 kg a.i./ha, visual rating after 3-4 weeks
Excerpt: as §1, §2, §3

[3] = tested on: Stellaria media; assay: Weed control post-emergence (greenhouse pot test); design: key: 0: = ohne Wirkung bzw. Schaden; 1: = 0 - 20 % Wirkung bzw. Schaden; = 20 - 40 % Wirkung bzw. Schaden; 3: = 40 - 60 % Wirkung bzw. Schaden; 4: = 60 - 80 % Wirkung bzw. Schaden; 5: = 80 - 100 % Wirkung bzw. Schaden; details: post-emergence (three-leaf stage), 2,5 kg a.i./ha, visual rating after ca. 3-4 weeks
Excerpt: as §1
(§4) Samen bzw. Rhizomstüeke von mono- und dikotylen Unkräutern wurden in Plasstiktöpfen (φ= 9 cm) in sandigem Lehmboden ausgelegt, mit Erde abgedeckt und im Gewächshaus unter guten Wachstumsbedingungen angezogen. Drei Wochen nach der Aussaat wurden die Versuchspflanzen im Dreiblattstadium behandelt. Die als Spritzpulver bzw. als Eτulsionskonzentrate formulierten erfindungsgemäßen Verbindungen wurden in verschiedenen Dosierungen mit einer Wasseraufwandmenge von umgerechnet 600-800 l/ha auf die grünen Pflanzenteile gesprüht und nach ca. 3-4 Wochen Standzeit der Versuchspflanzen im Gewächshaus unter optimalen Wachstumsbedingungen (Temperatur 23°C +/- 1°C, relative Luftfeuchte 60-80 %) die Wirkung der Präparate optisch im Vergleich zu unbehandelten Kontrollen bonitiert.

[4] = tested on: Echinochloa crus-galli; assay: Weed control post-emergence (greenhouse pot test); design: key: 0: = ohne Wirkung bzw. Schaden; 1: = 0 - 20 % Wirkung bzw. Schaden; = 20 - 40 % Wirkung bzw. Schaden; 3: = 40 - 60 % Wirkung bzw. Schaden; 4: = 60 - 80 % Wirkung bzw. Schaden; 5: = 80 - 100 % Wirkung bzw. Schaden; details: post-emergence (three-leaf stage), 2,5 kg a.i./ha, visual rating after ca. 3-4 weeks
Excerpt: as §1, §4

[5] = tested on: Sinapis arvensis; assay: Weed control pre-emergence (greenhouse pot test); details: pre-emergence, 2,5 kg a.i./ha, visual rating after 3-4 weeks
Excerpt: as §1, §2, §3

[6] = tested on: Avena sativa; assay: Weed control pre-emergence (greenhouse pot test); details: pre-emergence, 2,5 kg a.i./ha, visual rating after 3-4 weeks
Excerpt: as §1, §2, §3

[7] = tested on: Chrysanthemum segetum; assay: Weed control pre-emergence (greenhouse pot test); details: pre-emergence, 2,5 kg a.i./ha, visual rating after 3-4 weeks
Excerpt: as §1, §2, §3

[8] = tested on: Sinapis arvensis; assay: Weed control post-emergence (greenhouse pot test); details: post-emergence (three-leaf stage), 2,5 kg a.i./ha, visual rating after ca. 3-4 weeks
Excerpt: as §1, §4

[9] = tested on: Avena sativa; assay: Weed control post-emergence (greenhouse pot test); details: post-emergence (three-leaf stage), 2,5 kg a.i./ha, visual rating after ca. 3-4 weeks
Excerpt: as §1, §4

[10] = tested on: Chrysanthemum segetum; assay: Weed control post-emergence (greenhouse pot test); details: post-emergence (three-leaf stage), 2,5 kg a.i./ha, visual rating after ca. 3-4 weeks
Excerpt: as §1, §4

Row | SMILES | Herbizide Wirkung im Vorauflauf STM [1] | Herbizide Wirkung im Vorauflauf ECG [2] | Herbizide Wirkung im Nachauflauf STM [3] | Herbizide Wirkung im Nachauflauf ECG [4] | Herbizide Wirkung im Vorauflauf SIA [5] | Herbizide Wirkung im Vorauflauf AS [6] | Herbizide Wirkung im Vorauflauf CRS [7] | Herbizide Wirkung im Nachauflauf SIA [8] | Herbizide Wirkung im Nachauflauf AS [9] | Herbizide Wirkung im Nachauflauf CRS [10]
1 | CCOC(=O)C(C)OC(OC(=O)c1cc(Oc2c(Cl)cc(C(F)(F)F)cc2Cl)ccc1[N+](=O)[O-])C(Cl)(Cl)Cl (stereo not drawn) [compound 34] | 5 (= 80 - 100 % Wirkung bzw. Schaden) | 1 (= 0 - 20 % Wirkung bzw. Schaden) | 5 (= 80 - 100 % Wirkung bzw. Schaden) | 4 (= 60 - 80 % Wirkung bzw. Schaden) | 5 (= 80 - 100 % Wirkung bzw. Schaden) | 2 (= 20 - 40 % Wirkung bzw. Schaden) | 5 (= 80 - 100 % Wirkung bzw. Schaden) | 5 (= 80 - 100 % Wirkung bzw. Schaden) | 5 (= 80 - 100 % Wirkung bzw. Schaden) | 5 (= 80 - 100 % Wirkung bzw. Schaden)
2 | Cc1ncsc1COC(OC(=O)c1cc(Oc2ccc(C(F)(F)F)cc2Cl)ccc1[N+](=O)[O-])C(Cl)(Cl)Cl (stereo not drawn) [compound 37] | 1 (= 0 - 20 % Wirkung bzw. Schaden) | 2 (= 20 - 40 % Wirkung bzw. Schaden) | 0 | 2 (= 20 - 40 % Wirkung bzw. Schaden) | 4 (= 60 - 80 % Wirkung bzw. Schaden) | 2 (= 20 - 40 % Wirkung bzw. Schaden) | 3 (= 40 - 60 % Wirkung bzw. Schaden) | 5 (= 80 - 100 % Wirkung bzw. Schaden) | 2 (= 20 - 40 % Wirkung bzw. Schaden) | 4 (= 60 - 80 % Wirkung bzw. Schaden)
3 | CP(C)(=O)COC(OC(=O)c1cc(Oc2ccc(C(F)(F)F)cc2Cl)ccc1[N+](=O)[O-])C(Cl)(Cl)Cl (stereo not drawn) [compound 46] | 1 (= 0 - 20 % Wirkung bzw. Schaden) | 5 (= 80 - 100 % Wirkung bzw. Schaden) | 2 (= 20 - 40 % Wirkung bzw. Schaden) | 2 (= 20 - 40 % Wirkung bzw. Schaden) | 5 (= 80 - 100 % Wirkung bzw. Schaden) | 4 (= 60 - 80 % Wirkung bzw. Schaden) | 5 (= 80 - 100 % Wirkung bzw. Schaden) | 5 (= 80 - 100 % Wirkung bzw. Schaden) | 2 (= 20 - 40 % Wirkung bzw. Schaden) | 5 (= 80 - 100 % Wirkung bzw. Schaden)
